Experimental data published in US9247759B2, “Identification of human T2R receptors that respond to bitter compounds that elicit the bitter taste in compositions, and the use thereof in assays to identify compounds that inhibit (block) bitter taste in compositions and use thereof” (SENOMYX, INC., priority 2007, dated 2016).
Where two headings read alike, the source gives them in different places. Blank lines part the entries; values can stand above or below the molecule they belong to.

Target: hT2R8 (Homo sapiens (Human), UniProt Q9NYW2)
Experiment: hT2R8 antagonist high-throughput FLIPR assay, stable cell line with G16g44, agonist andrographolide
Type: cell-based
How it was run: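 Antagonist screen: compounds co-applied with agonist andrographolide at 200 μM, a dose giving 70–80% of maximal hT2R8 activation. Fluorescence measured by FLIPR in a stable HEK293 line expressing both hT2R8 and the promiscuous G16g44 protein.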

[1] = table after Example 10-97, read-out: hT2R8 IC50
[2] = unit uM, read-out: IC50 on hT2R08 bitter receptor
[3] = read-out: IC50 on hT2R8 bitter receptor
[4] = table after Example 12-37, read-out: hT2R8 IC50

Chain of hT2R8 (Q9NYW2 whole entry): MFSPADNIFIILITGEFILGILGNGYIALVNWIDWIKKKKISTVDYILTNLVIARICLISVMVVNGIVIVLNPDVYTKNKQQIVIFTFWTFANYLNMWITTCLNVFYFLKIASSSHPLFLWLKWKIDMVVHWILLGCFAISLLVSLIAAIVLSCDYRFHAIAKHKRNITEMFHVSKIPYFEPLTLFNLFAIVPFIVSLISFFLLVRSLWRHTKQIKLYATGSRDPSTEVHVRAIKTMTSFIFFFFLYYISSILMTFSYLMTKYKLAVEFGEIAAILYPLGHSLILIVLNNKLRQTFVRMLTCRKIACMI

IC50 [3]: 0.01 µM
Molecule: Cc1noc(C)c1Cn1cc(N2C(=O)N(Cc3ccc(F)c(O)c3)C(C)(C)C2=O)cn1 [Example 12-19, 3-(1-((3,5-dimethylisoxazol-4-yl)methyl)-1H-pyrazol-4-yl)-1-(4-fluoro-3-hydroxybenzyl)-5,5-dimethylimidazolidine-2,4-dione]

IC50 [4]: 0.11 µM
Molecule: Cc1noc(C)c1Cn1cc(N2C(=O)N(Cc3ccccc3F)C(C)(C)C2=O)cn1 [Example 12-45, 3-(1-((3,5-dimethylisoxazol-4-yl)methyl)-1H-pyrazol-4-yl)-1-(2-fluorobenzyl)-5,5-dimethylimidazolidine-2,4-dione]

IC50 [3]: 0.13 µM
Molecule: COCc1cccc(CN2C(=O)N(c3cnn(Cc4c(C)noc4C)c3)C(=O)C2(C)C)c1 [Example 12-35, 3-(1-((3,5-dimethylisoxazol-4-yl)methyl)-1H-pyrazol-4-yl)-1-(3-(methoxymethyl)benzyl)-5,5-dimethylimidazolidine-2,4-dione]

IC50 [4]: 0.19 µM
Molecule: Cc1noc(C)c1Cn1cc(N2C(=O)N(Cc3ccncc3)C(C)(C)C2=O)cn1 [Example 12-52, 3-(1-((3,5-dimethylisoxazol-4-yl)methyl)-1H-pyrazol-4-yl)-5,5-dimethyl-1-(pyridin-4-ylmethyl)imidazolidine-2,4-dione]

IC50 [3]: 0.04 µM
Molecule: Cc1noc(C)c1Cn1cc(N2C(=O)N(Cc3ccc(C#N)cc3)C(C)(C)C2=O)cn1 [Example 12-16, 4-((3-(1-((3,5-dimethylisoxazol-4-yl)methyl)-1H-pyrazol-4-yl)-5,5-dimethyl-2,4-dioxoimidazolidin-1-yl)methyl)benzonitrile]

IC50 [4]: 0.07 µM
Molecule: Cc1noc(C)c1Cn1cc(N2C(=O)N(Cc3ccccc3O)C(C)(C)C2=O)cn1 [Example 12-39, 3-(1-((3,5-dimethylisoxazol-4-yl)methyl)-1H-pyrazol-4-yl)-1-(2-hydroxybenzyl)-5,5-dimethylimidazolidine-2,4-dione]

IC50 [4]: 0.81 µM
Molecule: Cc1cccc(CN2C(=O)N(c3cnn(Cc4c(C)noc4C)c3)C(=O)C2(C)C)c1F [Example 12-82, 3-(1-((3,5-dimethylisoxazol-4-yl)methyl)-1H-pyrazol-4-yl)-1-(2-fluoro-3-methylbenzyl)-5,5-dimethylimidazolidine-2,4-dione]

IC50 [3]: 0.15 µM
Molecule: Cc1noc(C)c1Cn1cc(N2C(=O)N(C(C)c3ccccc3)C(C)(C)C2=O)cn1 (centres unmarked) [Example 12-24, 3-(1-((3,5-dimethylisoxazol-4-yl)methyl)-1H-pyrazol-4-yl)-5,5-dimethyl-1-(1-phenylethyl)imidazolidine-2,4-dione]

IC50 [4]: 0.31 µM
Molecule: COc1cccc(F)c1CN1C(=O)N(c2cnn(Cc3c(C)noc3C)c2)C(=O)C1(C)C [Example 12-65, 3-(1-((3,5-dimethylisoxazol-4-yl)methyl)-1H-pyrazol-4-yl)-1-(2-fluoro-6-methoxybenzyl)-5,5-dimethylimidazolidine-2,4-dione]

IC50 [4]: 0.27 µM
Molecule: Cc1noc(C)c1Cn1cc(N2C(=O)N(Cc3ccc4c(c3)OCCO4)C(C)(C)C2=O)cn1 [Example 12-62, 1-((2,3-dihydrobenzo[b][1,4]dioxin-6-yl)methyl)-3-(1-((3,5-dimethylisoxazol-4-yl)methyl)-1H-pyrazol-4-yl)-5,5-dimethylimidazolidine-2,4-dione]

IC50 [4]: 0.09 µM
Molecule: Cc1noc(C)c1Cn1cc(N2C(=O)N(Cc3cccc(C#N)c3)C(C)(C)C2=O)cn1 [Example 12-42, 3-((3-(1-((3,5-dimethylisoxazol-4-yl)methyl)-1H-pyrazol-4-yl)-5,5-dimethyl-2,4-dioxoimidazolidin-1-yl)methyl)benzonitrile]

IC50 [3]: 0.23 µM
Molecule: Cc1cc(CN2C(=O)N(c3cnn(Cc4c(C)noc4C)c3)C(=O)C2(C)C)n(C)n1 [Example 12-26, 1-((1,3-dimethyl-1H-pyrazol-5-yl)methyl)-3-(1-((3,5-dimethylisoxazol-4-yl)methyl)-1H-pyrazol-4-yl)-5,5-dimethylimidazolidine-2,4-dione]

The remaining lines, values behind:

Molecule: Cc1noc(C)c1Cn1cc(N2C(=O)CN(Cc3ccccc3N)C2=O)cn1 [Example 10-34, 1-(2-aminobenzyl)-3-(1-((3,5-dimethylisoxazol-4-yl)methyl)-1H-pyrazol-4-yl)imidazolidine-2,4-dione]
IC50 [1]: 0.163 µM
IC50 [2]: 0.02 µM

Molecule: COc1cccc(C(=O)Nc2cnn(Cc3c(C)noc3C)c2)c1O [Example 4-71, N-(1-((3,5-dimethylisoxazol-4-yl)methyl)-1H-pyrazol-4-yl)-2-hydroxy-3-methoxybenzamide]
IC50 (Table A, read-out: hT2R8 IC50): 2.9 µM

Molecule: Cc1cccc(C(=O)Nc2cnn(Cc3c(C)noc3C)c2)n1 [Example 4-48, N-(1-((3,5-dimethylisoxazol-4-yl)methyl)-1H-pyrazol-4-yl)-6-methylpicolinamide]
IC50 (Table A, read-out: hT2R8 IC50): 1.95 µM

Molecule: Cc1noc(C)c1Cn1cc(N2C(=O)CN(Cc3cc(C)n(C)n3)C2=O)cn1 [Example 10-28, 1-((1,5-dimethyl-1H-pyrazol-3-yl)methyl)-3-(1-((3,5-dimethylisoxazol-4-yl)methyl)-1H-pyrazol-4-yl) imidazolidine-2,4-dione]
IC50 [1]: 0.322 µM
IC50 [2]: 0.3 µM

Molecule: CCC(C(=O)Nc1cnn(Cc2c(C)noc2C)c1)c1ccccc1 (centres unmarked) [Example 4-37, N-(1-((3,5-dimethylisoxazol-4-yl)methyl)-1H-pyrazol-4-yl)-2-phenylbutanamide]
IC50 (Table A, read-out: hT2R8 IC50): 0.5 µM

Molecule: Cc1noc(C)c1Cn1cc(N2C(=O)N[C@H](Cc3ccccc3)C2=O)cn1 [Example 10-4, (R)-5-benzyl-3-(1-((3,5-dimethylisoxazol-4-yl)methyl)-1H-pyrazol-4-yl)imidazolidine-2,4-dione]
IC50 [3]: 0.11 µM
IC50 [1]: 0.112 µM

Molecule: 1-((1,3-dimethyl-1H-pyrazol-4-yl)methyl)-3-(1-((3,5-dimethylisoxazol-4-yl)methyl)-1H-pyrazol-4-yl) imidazolidine-2,4-dione [Example 10-90]
IC50 [1]: 0.215 µM

Molecule: Cc1noc(C)c1Cn1cc(N2C(=O)CN(CCCc3ccccc3)C2=O)cn1 [Example 10-94, 3-(1-((3,5-dimethylisoxazol-4-yl)methyl)-1H-pyrazol-4-yl)-1-(3-phenylpropyl)imidazolidine-2,4-dione]
IC50 [3]: 0.26 µM
IC50 [1]: 0.068 µM

Molecule: Cc1noc(C)c1Cn1cc(N2C(=O)[C@H](C(C)C)N(Cc3cccc(O)c3)C2=O)cn1 [Example 12-8, (S)-3-(1-((3,5-dimethylisoxazol-4-yl)methyl)-1H-pyrazol-4-yl)-1-(3-hydroxybenzyl)-5-isopropylimidazolidine-2,4-dione]
IC50 [3]: 0.65 µM

Molecule: Cc1noc(C)c1Cn1cc(NC(=S)Nc2ccccc2C#N)cn1 [Example 4-111, 1-(2-cyanophenyl)-3-(1-((3,5-dimethylisoxazol-4-yl)methyl)-1H-pyrazol-4-yl)thiourea]
IC50 (Table A, read-out: hT2R8 IC50): 2.35 µM

Molecule: Cc1noc(C)c1Cn1cc(-n2c(=O)n(C)n(CCc3ccc(F)cc3)c2=O)cn1 [Example 10-66, 4-(1-((3,5-dimethylisoxazol-4-yl)methyl)-1H-pyrazol-4-yl)-1-(4-fluorophenethyl)-2-methyl-1,2,4-triazolidine-3,5-dione]
IC50 [3]: 0.01 µM
IC50 [1]: 0.012 µM

Molecule: COc1ccccc1CN1CC(=O)N(c2cnn(Cc3c(C)noc3C)c2)C1=O [Example 10-18, 3-(1-((3,5-dimethylisoxazol-4-yl)methyl)-1H-pyrazol-4-yl)-1-(2-methoxybenzyl)imidazolidine-2,4-dione]
IC50 [1]: 0.06 µM
IC50 [2]: 0.06 µM

Molecule: Cc1noc(C)c1Cn1cc(N2C(=O)NC(CCc3ccccc3)C2=O)cn1 (centres unmarked) [Example 10-45, 3-(1-((3,5-dimethylisoxazol-4-yl)methyl)-1H-pyrazol-4-yl)-5-phenethylimidazolidine-2,4-dione]
IC50 [3]: 0.22 µM
IC50 [1]: 0.793 µM

Molecule: Cc1noc(C)c1Cn1cc(N2C(=O)CN(Cc3ccccc3[N+](=O)[O-])C2=O)cn1 [Example 10-23, 3-(1-((3,5-dimethylisoxazol-4-yl)methyl)-1H-pyrazol-4-yl)-1-(2-nitrobenzyl)imidazolidine-2,4-dione]
IC50 [1]: 0.081 µM
IC50 [2]: 0.07 µM

Molecule: COc1cc(OC)cc(C(=O)Nc2cnn(Cc3c(C)noc3C)c2)c1 [Example 4-18, N-(1-((3,5-dimethylisoxazol-4-yl)methyl)-1H-pyrazol-4-yl)-3,5-dimethoxybenzamide]
IC50 (Table A, read-out: hT2R8 IC50): 0.28 µM

Molecule: Cc1noc(C)c1Cn1cc(NC(=S)Nc2ccccc2F)cn1 [Example 4-105, 1-(1-((3,5-dimethylisoxazol-4-yl)methyl)-1H-pyrazol-4-yl)-3-(2-fluorophenyl)thiourea]
IC50 (Table A, read-out: hT2R8 IC50): 1.63 µM

Molecule: Cc1noc(C)c1Cn1cc(N(C)C(=O)C2(c3ccccc3)CC2)cn1 [Example 4-66, N-(1-((3,5-dimethylisoxazol-4-yl)methyl)-1H-pyrazol-4-yl)-N-methyl-1-phenylcyclopropanecarboxamide]
IC50 (Table A, read-out: hT2R8 IC50): 8.23 µM

Molecule: Cc1noc(C)c1Cn1cc(NC(=O)C(c2ccccc2)c2ccccc2)cn1 [Example 4-44, N-(1-((3,5-dimethylisoxazol-4-yl)methyl)-1H-pyrazol-4-yl)-2,2-diphenylacetamide]
IC50 (Table A, read-out: hT2R8 IC50): 5.19 µM

Molecule: Cc1noc(C)c1Cn1cc(NC(=O)c2ccc[nH]2)cn1 [Example 4-13, N-(1-((3,5-dimethylisoxazol-4-yl)methyl)-1H-pyrazol-4-yl)-1H-pyrrole-2-carboxamide]
IC50 [3]: 0.57 µM

Molecule: Cc1noc(C)c1Cn1cc(N2C(=O)[C@H](C)N(Cc3cccc(O)c3)C2=O)cn1 [Example 12-6, (S)-3-(1-((3,5-dimethylisoxazol-4-yl)methyl)-1H-pyrazol-4-yl)-1-(3-hydroxybenzyl)-5-methylimidazolidine-2,4-dione]
IC50 [3]: 0.02 µM

Molecule: Cc1noc(C)c1Cn1cc(N(C)C(=O)C(C)c2ccccc2)cn1 (centres unmarked) [Example 4-97, N-(1-((3,5-dimethylisoxazol-4-yl)methyl)-1H-pyrazol-4-yl)-N-methyl-2-phenylpropanamide]
IC50 (Table A, read-out: hT2R8 IC50): 2.13 µM

Molecule: Cc1noc(C)c1Cn1cc(N2C(=O)C(C)N(Cc3ccccc3)C2=O)cn1 (centres unmarked) [Example 10-43, 1-benzyl-3-(1-((3,5-dimethylisoxazol-4-yl)methyl)-1′-1-pyrazol-4-yl)-5-methylimidazolidine-2,4-dione]
IC50 [3]: 0.02 µM
IC50 [1]: 0.02 µM

Molecule: Cc1ccccc1NC(=S)Nc1cnn(Cc2c(C)noc2C)c1 [Example 4-108, 1-(1-((3,5-dimethylisoxazol-4-yl)methyl)-1H-pyrazol-4-yl)-3-o-tolylthiourea]
IC50 (Table A, read-out: hT2R8 IC50): 3.01 µM
